The subject of one data set is MCF7R. Briefly: Cytotoxicity IC50 on MCF7R cells. The format is cell-based. Particulars: Homo sapiens. As to the method: (§1) The preceding KB cells are then incubated in 6- or 96-well plates in the presence of the test compounds of the invention, dissolved in dimethyl sulfoxide (DMSO). The content of surviving cells is measured by the “colony-forming assay” test, in which the cells are redistributed at a density of 100 to 300 cells per well in 24-well plates, for a period of 8 days, and are then stained with Leishman's reagent (0.2% in methanol). The colonies of more than 50 cells are counted visually under a microscope, the survival rate being expressed on the colonies formed in the presence of the compounds of the invention relative to cell colonies not treated with said compounds. The determination of the IC50 values (concentration of compounds in the reaction medium for which 50% of the tested tumor cells survived the treatment) enables comparison of the efficacy of these compounds.
(§2) Table 4 presents the results of the IC50 (cytotoxicity) on different cell lines, according to the protocol described previously, obtained for compounds I14 and I20.

Another data set relates to A549. The data set can be described thus: Cytotoxicity IC50 on A549 cells. The conditions noted are these: Homo sapiens. In kind it is cell-based. Here is the method:
as §1, §2

The subject of another data set is caspases 9. The data set can be described thus: Activation of caspases 9 in HL60 cells. In kind it is cell-based, human. The conditions noted are these: 48 hours, 1 μM, 0.1 μM and 0.01 μM. As to the method:
(§3) In this example, in order to show the role of compounds I14 and I20 in this effect, specific products were used: DEVD for caspases 3/7, IEDT for caspases 8, and LEHD for caspases 9. Moreover, colchicine was used as reference compound that induces this activity of caspases. I14 and I20 were tested at three concentrations: 1 μM, 0.1 μM and 0.01 μM.
(§4) The experiments were performed by placing I14 and I20 in contact with HL60 cells for 48 hours, according to the standard protocol described by Margolin et al., J. Biol. Chem. (1997), 272, p. 7223, using standard commercially available diagnostic kits (Calbiochem, USA).

For data set [1], the system named is U87/GFP cells. Briefly: Antiproliferative effect on U87/GFP cells (flash cytometry). In kind it is cell-based, human. Here is the method: For the U-87/GFP cells, the control of cell proliferation and migration in the presence of the compounds (I) of the invention is performed via a colorimetric method (MTS) and is performed according to known standard protocols. The methodologies implemented use flash cytometry (Trophos S.A., Marseilles, France). The flash cytometry technique involves fluorescence, which consists of irradiating a compound at a set wavelength and of recording the fluorescence emitted at another wavelength. This technique is performed with a flash cytometer and adapted for 96-well test plates. The excitation and emission wavelengths in the context of use of this fluorescence are located in the 485-495 nm range. The measured fluorescence expresses the amount of cells surviving after treatment with the compounds of the invention. The publications by Luby-Phelps K. et al., J. Histochemistry and Cytometry, 2003, 51, 271-274 and Modarai B. et al., Circulation, 2005, 111, 2645-2653 may be mentioned by way of reference for the above methods.
The cells of the U87/GFP lines are cultured in 96-well plates according to a standard methodology described by Bajetto et al., Neurochemistry International, 2006, 43, 31-38 in the presence of different concentrations of the compounds of the invention.
The cell proliferation is determined and quantified according to standard methods known to those skilled in the art. A 100% proliferation is attributed to the untreated cells and a percentage less than 100% is obtained when the same cells are treated with the compounds of the invention.
(§5) The cell proliferation and migration are determined by imaging using a flash cytometer (Trophos S.A., Marseilles, France), and the calculations are performed using the “Metamorph 4.6” imaging signal processing software (Molecular Devices, USA), the use of which, which is known in the field, makes it possible to determine the above two effects independently of each other.

For another data set, the system named is caspases 3/7. The data set can be described thus: Activation of caspases 3/7 in HL60 cells. In kind it is cell-based, human. The conditions noted are these: 48 hours. Here is the method:
as §3, §4

Another data set has as its system SF268. The data set can be described thus: Cytotoxicity IC50 on SF268 cells. Particulars: Homo sapiens, SF-268. The format is cell-based. As to the method: as §1, §2
The next data set deals with KB cells. The data set can be described thus: Cytotoxicity / cell viability on KB cells (colony-forming assay). In kind it is cell-based, human. The conditions noted are these: for IC50: Homo sapiens, KB, read-out: Cytotoxicity on KB cells (IC50). Here is the method:
Cancerous KB cells are also considered, to determine the cell viability (or survival rate). This cell viability is determined according to the teaching of Nicholson K. M. et al., British Journal of Cancer, 1999, 81, 423-430.
KB cells are human carcinoma cell lines, KB-3-1. These cells are maintained in a culture medium, “Dulbecco's modified Eagle's medium” (DMEM—Sigma), which contains 0.11 g/l of sodium pyruvate and 4.5 g/l of glucose, supplemented with 10% (v/v) fetal calf serum, penicillin (32 μg/ml) and streptomycin (50 μg/ml). The cells are cultured as monolayers and are incubated at 37° C. in a humid atmosphere (95% air/5% CO2).
as §1

Another data set concerns OV3. The data set can be described thus: Cytotoxicity IC50 on OV3 cells. In kind it is cell-based. The conditions noted are these: Homo sapiens. As to the method:
as §1, §2

A further data set deals with HepG2. The data set can be described thus: Cytotoxicity IC50 on HepG2 cells. In kind it is cell-based. Particulars: Homo sapiens. As to the method:
as §1, §2

A further data set deals with HTC116. The data set can be described thus: Cytotoxicity IC50 on HTC116 cells. In kind it is cell-based. The conditions noted are these: Homo sapiens. Here is the method: as §1, §2
Another data set deals with PC3. Briefly: Cytotoxicity IC50 on PC3 cells. In kind it is cell-based. Particulars: Homo sapiens, PC-3. As to the method: as §1, §2
The test system of a further data set is MCF7. Briefly: Cytotoxicity IC50 on MCF7 cells. In kind it is cell-based. Particulars: Homo sapiens. Here is the method:
as §1, §2

For data set [2], the system named is U87/GFP cells. Briefly: Antimigratory effect on U87/GFP cells (scratch technique). The format is cell-based, human. As to the method:
The determination of the antimigratory activity of the compounds (I) of the invention on these same cell lines, cultured in MEM medium (Minimum Essential Medium) is performed via the “scratch” technique that consists in scratching a cell lawn using a micropipette cone. By comparison with these same cells not containing the compounds of the invention, the antimigratory effect is determined. A 100% migration is attributed to the untreated cells, whereas, as a function of the concentration of the compounds (I) of the invention, total stoppage of migration is determined by observation of the “scratch” remaining unfilled by the cell migration, by means of computer software.
as §5

In a further data set the test system is HL60. Briefly: Cytotoxicity IC50 on HL60 cells. The format is cell-based. Particulars: Homo sapiens, HL-60. As to the method:
as §1, §2

The subject of a further data set is K562. Briefly: Cytotoxicity IC50 on K562 cells. The format is cell-based. Particulars: Homo sapiens. As to the method:
as §1, §2

The subject of another data set is HTC15. The data set can be described thus: Cytotoxicity IC50 on HTC15 cells. The conditions noted are these: Homo sapiens. The format is cell-based. As to the method: as §1, §2
A further data set has as its system caspases 8. The data set can be described thus: Activation of caspases 8 in HL60 cells. In kind it is cell-based, human. Particulars: 48 hours, 1 μM, 0.1 μM and 0.01 μM. As to the method:
as §3, §4

The structures appear in SMILES notation. Like-named read-outs stand apart in the source and are kept apart here.

For orientation: IC50 means the point on the concentration scale where inhibition reaches its midpoint.

Regarding `Cc1ccc(CN(Cc2ccc(O)c3ncccc23)c2ccc(O)c3ncccc23)cc1` [I14, 5-(((8-hydroxyquinolin-5-yl)(4-methylbenzyl)amino)methyl)quinolin-8-ol], the IC50 worked out at 0.0373 ± 0.028 µM in the data set on MCF7R; 0.0043 ± 0.0001 µM in the data set with A549; 0.5 µM in the data set with U87/GFP cells [1] (concentration giving 65% inhibition of proliferation); 0.178 ± 0.083 µM in the data set with SF268; 0.0026 µM in the data set with KB cells (first value of two experiments performed in parallel); 0.0014 µM in the data set on KB cells (second value of two experiments performed in parallel). Besides, the 50% inhibitory concentration (IC50) with OV3 came out at 0.008 ± 0.0004 µM; in the data set with HepG2, 0.0521 ± 0.0145 µM; in the data set on HTC116, 0.0032 ± 0.0012 µM; in the data set with PC3, 0.343 ± 0.125 µM; with MCF7 it was 0.0054 ± 0.0009 µM; in the data set with U87/GFP cells [2] (concentration giving 40% inhibition of migration), 0.5 µM. Besides, the IC50 in the data set with HL60 was determined as 0.0327 ± 0.0066 µM; in the data set on K562, 0.0408 ± 0.022 µM; with HTC15 it was 0.006 ± 0.0073 µM. The “effect on the activation of caspases 9” value with caspases 9 was “no effect”. Moreover, the inhibition at 0.5 µM in the data set on U87/GFP cells [1] (Homo sapiens, at 0.5 μM, read-out: Antiproliferative effect on U87/GFP cells: percentage inhibition) stood at 65%; in the data set with U87/GFP cells [2] (Homo sapiens, at 0.5 μM, read-out: Antimigratory effect on U87/GFP cells: percentage inhibition), 40%. Further, the “effect on the activation of caspases 3/7” value with caspases 3/7 (0.01 μM) is “neither 114 nor 120 has an effect”; in the data set with caspases 3/7 (1 μM and 0.1 μM) it was “strong effect”. The “Cytotoxicity on KB cells (percentage inhibition of cell viability)” value with KB cells (at 1 μM, relative to reference without compound) came out at 90% at 1 μM. In addition, in the data set with caspases 8, the “effect on the activation of caspases 8” value is reported as “no effect”.

The values above are taken from patent publication US8614230B2, “Derivatives of the aminated hydroxyquinoline class for treating cancers” (Biopharmed, priority 2007, dated 2013).
